Experiment: clinical
Conditions: human, in vivo, po

- fraction unbound: 0.04
Structure (SMILES): Nc1nc2ccc(OC(F)(F)F)cc2s1 [RILUZOLE]

— ChEMBL document CHEMBL3832083
